The results in this text go back to PubChem BioAssay AID1645848.

Each structure is given as a SMILES string. In brackets after ≈: the same amount, converted by molar mass.

The conditions of this data set: buffer; pH 7.4; 6.0 h; 150.0 µM.
Compound `COc1ccc(CCN2C(=O)N(c3ccc(F)cc3)C(=O)C2CC(=O)Nc2ccc(F)c(F)c2)cc1` (stereo not given) registered a kinetic solubility of 9.71 µg/mL (≈ 19.5 µM).

Compound `Cc1cnc(-c2ccccc2C2COC2)nc1NCc1ccc(-n2ccnn2)cc1` displayed a kinetic solubility above 59 µg/mL.

`COc1ccc2[nH]c(=O)c(-c3noc(-c4ccccc4)n3)cc2c1`: the kinetic solubility is below 1 µg/mL.

In turn, `Cc1cc(CNC(=O)c2ccc3c(c2)n(CC2CC2)c(=O)n3C2CCCCC2)on1` showed a solubility (kinetic) of 15.6 µg/mL (≈ 38.3 µM).

For the compound `O=C(Nc1ncc(Cc2ccccc2)s1)c1ccc(-c2cccc([N+](=O)[O-])c2)o1`, the solubility (kinetic) was below 1 µg/mL.

On to `COc1ccc(C2Nc3ccccc3C(=O)N2Cc2cccnc2)cc1COc1c(C)cc(NC(C)=O)cc1C` (stereo not given), for which the kinetic solubility is 1.69 µg/mL (≈ 3.16 µM).

`Cc1cnc(-c2ccccc2C2COC2)nc1NCC1CCN(c2cccnc2)CC1` showed a kinetic solubility above 61 µg/mL.

Turning to `CC(=O)c1c(C)[nH]c(C(=O)Nc2cccc([S+](=O)([O-])Nc3ccccc3)c2)c1C`, the solubility (kinetic) stood at 2.16 µg/mL (≈ 5.24 µM).

The compound `CC1=Nc2cc(C(=O)NCCc3ccccc3)ccc2Sc2c(C)ccc(C)c21` showed a solubility (kinetic) below 1 µg/mL.

The compound `C#CCNC(=O)c1nc(-c2cccnc2)c2ccccn12` registered a kinetic solubility above 61 µg/mL.

Turning to `O=C1c2ccccc2C2=Nc3ccccc3SC(c3ccccc3F)C12` (stereo not given), the solubility (kinetic) is below 1 µg/mL.

In turn, `O=C(Nc1ccccc1)C1CCN(c2nc(-c3ccc(Br)cc3)cs2)CC1` returned a kinetic solubility of 5.11 µg/mL (≈ 11.5 µM).

With `O=C(NC1CCCc2c1cnn2-c1ccc(F)cc1F)c1ccccc1` (stereo not given), the solubility (kinetic) was 4.29 µg/mL (≈ 12.1 µM).

For `CC(C)(C)C1CCc2c(sc(NC(=O)c3ccncc3)c2C(N)=O)C1` (stereo not given), the solubility (kinetic) was below 1 µg/mL.

Compound `Fc1cc(Nc2nc(-c3ccncc3)nc3ccccc23)ccc1N1CCCC1` gave a solubility (kinetic) below 1 µg/mL.

In turn, `CCN1C(=O)c2ccccc2S(=O)c2ccc(NC(=O)Cc3ccc(F)cc3)cc21` (stereo not given) had a solubility (kinetic) below 1 µg/mL.

The compound `CC(C)c1ccccc1-c1ncc(F)c(NC(C)(C)c2ccc(-n3ccnn3)cc2)n1` came in with a kinetic solubility of 1.14 µg/mL (≈ 2.74 µM).

The compound `CCc1c(C)nc2c(-c3cnn(-c4cc(CO)ccn4)c3)c[nH]n2c1=O` yielded a kinetic solubility of 10.1 µg/mL (≈ 28.7 µM).

In the case of `O=[S+]([O-])(Nc1ccccc1)c1ccc(NCc2cccc(Cl)c2F)cc1`, the solubility (kinetic) is below 1 µg/mL.

`C[C@]12N[C@H](Cc3ccccc31)c1ccccc12` gave a solubility (kinetic) above 33 µg/mL.

Regarding `Cc1cccc(-n2ncc3c2CCCC3NC(=O)c2c(F)ccc(F)c2F)c1C` (stereo not given), the kinetic solubility amounted to 7.25 µg/mL (≈ 18.1 µM).

In turn, `Cn1nnnc1Sc1ncnc2scc(Br)c12` displayed a kinetic solubility of 1.27 µg/mL (≈ 3.85 µM).

In turn, `O=C(Cc1ccc(Cl)c(Cl)c1)Nc1ccc(S(=O)(=O)Nc2cncnc2)cc1` came in with a kinetic solubility above 64 µg/mL.

Take `Cc1ccc(S(=O)(=O)Nc2cnccc2C(=O)Nc2nc(-c3ccc(-c4ccccc4)cc3)cs2)cc1`: the kinetic solubility was 0.487 µg/mL (≈ 0.925 µM).

In the case of `COc1ccc(-c2csc(NC(=O)c3ccncc3NS(=O)(=O)c3ccc(C)cc3)n2)cc1`, the solubility (kinetic) was found to be 54.8 µg/mL (≈ 114 µM).

Consider `Cc1ncc2c(c1CNC(=O)Cn1cnc3ccccc3c1=O)CCNC2`, for which the solubility (kinetic) was determined as 28.1 µg/mL (≈ 77.2 µM).

For the compound `COC(=O)CNC(=O)c1nc(-c2ccc([S+](C)(=O)[O-])cc2)c2cnccn12`, the kinetic solubility is above 57 µg/mL.

As for `COc1cccc(CNc2ccc(S(=O)(=O)Nc3ccc(N4CCNCC4)cc3)cc2)c1O`, the kinetic solubility worked out at 58.3 µg/mL (≈ 124 µM).

Consider `O=C1CCc2cc(S(=O)(=O)Nc3ccc(F)c(Cl)c3)c(F)cc2N1`, for which the kinetic solubility was 13.4 µg/mL (≈ 35.9 µM).

The compound `Nc1c(S(=O)(=O)c2cccs2)c2nc3ccccc3nc2n1Cc1ccccc1` returned a kinetic solubility below 1 µg/mL.

In turn, `Cc1ccc(-c2cc(C(=O)Nc3ccc(-n4cncn4)cc3)c3ccccc3n2)cc1C` returned a kinetic solubility below 1 µg/mL.

On to `CCOc1ccc(N2CC(c3nc(-c4ccccn4)no3)CC2=O)cc1` (stereo not given), for which the solubility (kinetic) was above 35 µg/mL.

In turn, `CC(=O)N[C@H]1CN(C2CCN(c3ccc(F)cc3C)CC2)C[C@@H]1C1CC1` showed a kinetic solubility of 20.3 µg/mL (≈ 56.4 µM).

In the case of `Cc1ccc(-n2nc(C)c3c(-c4ccc(O)c(O)c4)c(C#N)c(N)nc32)cc1C`, the kinetic solubility was found to be 1.81 µg/mL (≈ 4.7 µM).

`NS(=O)(=O)c1ccc(NC(=O)c2cc3ncccn3n2)cc1` registered a solubility (kinetic) of 5.17 µg/mL (≈ 16.3 µM).
